What was measured:
Assay type in all cases: physicochemical
[1] = Tablet hardness (Schuleuniger-4M tablet hardness tester); settings: denture cleanser tablet (Table 1 formula, citric acid), additive 0.6%
Description: Tablets were compressed using ⅞″ round tooling on a Stokes F press. Compression force was adjusted to give the hardest possible tablet (limit set by capability of the press or by the appearance of tablet capping).
Hardness was measured using a Schuleuniger-4M tablet hardness tester.
Three (3) gram tablets were compressed using ⅞″ round tooling on a Stokes F press. Compression force was adjusted to give the hardest possible tablet (limit set by capability of the press or by appearance of tablet capping).
3.3 gram tablets were compressed using ⅞″ round tooling on a Stokes F press. As above, compression force was adjusted to give the hardest possible tablet (limit set by capability of the press or by appearance of tablet capping).
2.5 gram tablets were compressed using ⅞″ round tooling on a Stokes F press. As above, compression force was adjusted to give the hardest possible tablet (limit set by capability of the press or by appearance of tablet capping).

[2] = Tablet friability, modified USP-NF <1216> (Erweka TA, 10 tablets, 25 rpm; % unbroken tablets)
Description: Friability was measured in a manner similar to that described in the USP-NF, Chapter <1216>. The USP-NF method was modified in that the number of tablet used and the method of calculation were changed as indicated here. Ten (10) tablets were placed in an Erweka TA friability apparatus. The tablets were tumbled at 25 rpm for the indicated number of minutes. The percentage of unbroken tablets is reported.

[3] = Solubility in water of the tested materials; settings: neat material
From the text: In an attempt to understand what chemical properties of the tested materials are critical to improving friability, we looked at some of the physical properties of the tested materials.

In the case of OCC(O)CO [Glycerin], the Hardness [1] is reported as 9.5 kp, the “Friability (% whole tablets) 2 min” value ([2]; denture cleanser tablet (Table 1 formula, citric acid), additive 0.6%, tumbled 2 min) is reported as 100 % whole tablets and the “Friability (% whole tablets) 4 min” value ([2]; denture cleanser tablet (Table 1 formula, citric acid), additive 0.6%, tumbled 4 min) is reported as 100 % whole tablets. The “Friability (% whole tablets) 6 min” value ([2]; denture cleanser tablet (Table 1 formula, citric acid), additive 0.6%, tumbled 6 min) was 100 % whole tablets, the “Friability (% whole tablets) 8 min” value ([2]; denture cleanser tablet (Table 1 formula, citric acid), additive 0.6%, tumbled 8 min) was 100 % whole tablets and the “Friability (% whole tablets) 10 min” value ([2]; denture cleanser tablet (Table 1 formula, citric acid), additive 0.6%, tumbled 10 min) was 100 % whole tablets. The Friability improvement ([2]; summary for denture cleanser tablet (Table 1 formula), material at 0.6%) was “Yes” and the “Solubility in Water (w/w %)” value [3] was 100% w/w %.

— patent US11058642B2, “Tablets with improved friability” (TOWER LABORATORIES LTD, priority 2013, dated 2021)
